Tests used:
[1] = species: Rattus norvegicus; assay: Duration of time in hours, after ingestion at which central effects begin to decline was determined.; type: functional
[2] = […] and the effective dose required for the elicitation of the complete psychotomimetic spectrum was determined.; type: functional
[3] = species: Rattus norvegicus; assay: Onset time in minutes, between ingestion and the first noticeable symptoms was determined; type: functional
[4] = species: Rattus norvegicus; assay: […] and the effective dose required for the elicitation of the complete psychotomimetic spectrum was determined; f =Not effective at 50 mg; type: functional, organism-based

Row | Compound | Duration [1] [h] | Effective dose [2] [mg/kg] | Onset time [3] [min] | Effective dose [4]
1 | CC(C)N(C)CCc1c[nH]c2ccccc12 | 3 | 25 | 40 | –
2 | CC(C)N(C)CCc1c[nH]c2cc3ooc3cc12 | – | – | – | Not effective at 50mg
3 | COc1cccc2[nH]cc(CCN(C)C(C)C)c12 | 2 | 30 | 45 | –
4 | COc1ccc2[nH]cc(CCN(C)C(C)C)c2c1 | 3 | 5 | 9 | –
5 | COc1cc2[nH]cc(CCN(C)C(C)C)c2cc1OC | – | – | – | Not effective at 50mg
6 | COc1ccc2c(CCN(C)C(C)C)c[nH]c2c1 | – | – | – | Not effective at 50mg
7 | CC(C)N(C)CCc1c[nH]c2cccc(O)c12 | 6 | 10 | 20 | –
8 | COc1cccc2c(CCN(C)C(C)C)c[nH]c12 | – | – | – | Not effective at 50mg
